The values that follow come from ChEMBL document CHEMBL4699434, “Fenretinide binding to the lysosomal protein saposin D alters ceramide solubilization and hydrolysis” (RSC Med Chem, 2020).

Active and inactive are the calls of the source. No cut-off for these calls is given here.

Assay [1] concerns the target T1, Prosaposin (Homo sapiens) (UniProt P07602).
T1 sequence (whole entry): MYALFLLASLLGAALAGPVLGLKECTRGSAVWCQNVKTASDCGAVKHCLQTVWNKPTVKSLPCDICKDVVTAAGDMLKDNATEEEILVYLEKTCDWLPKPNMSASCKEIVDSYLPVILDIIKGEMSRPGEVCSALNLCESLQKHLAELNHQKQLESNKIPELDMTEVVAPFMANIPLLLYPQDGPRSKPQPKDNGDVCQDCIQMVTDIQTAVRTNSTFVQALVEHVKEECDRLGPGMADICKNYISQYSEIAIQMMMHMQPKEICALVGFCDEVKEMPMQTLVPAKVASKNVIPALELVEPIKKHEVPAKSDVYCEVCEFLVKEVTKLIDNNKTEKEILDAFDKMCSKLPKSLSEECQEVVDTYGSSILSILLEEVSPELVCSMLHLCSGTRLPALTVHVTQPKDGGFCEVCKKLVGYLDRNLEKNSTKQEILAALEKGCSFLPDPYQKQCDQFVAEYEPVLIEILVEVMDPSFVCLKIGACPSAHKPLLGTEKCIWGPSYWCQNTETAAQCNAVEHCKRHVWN
The assay can be described thus: Binding affinity to human saposin D (1 to 81 residues) expressed in Escherichia coli assessed as decrease in BODIPY-TR labeled ceramide solubilization in sodium phosphate buffer measured after 30 mins by fluorescence assay.

Assay [2] deals with T1, Prosaposin (Homo sapiens). The assay can be described thus: Binding affinity to human saposin D (1 to 81 residues) expressed in Escherichia coli assessed as association constant at equilibrium at 25 degree C by electronic absorption spectroscopy.
Assay [3] addresses T2, Prosaposin (Homo sapiens, UniProt P07602).
T2 sequence (P07602 whole entry): T1 sequence (whole entry)
The assay can be described thus: Binding affinity to human saposin D (1 to 81 residues) expressed in Escherichia coli at 25 degree C by electronic absorption spectroscopy.

Assay [4] has as its target T1, Prosaposin (Homo sapiens). Kind of assay: Binding affinity to human saposin D (1 to 81 residues) expressed in Escherichia coli assessed as association constant at equilibrium at 25 degree C by fluorescence quenching spectroscopy.
The target of assay [5] is T2, Prosaposin. Kind of assay: Binding affinity to human saposin D (1 to 81 residues) expressed in Escherichia coli at 25 degree C by fluorescence quenching spectroscopy.
The target of assay [6] is T1, Prosaposin (Homo sapiens). The assay can be described thus: Binding affinity to human saposin D (1 to 81 residues) expressed in Escherichia coli complexed with CerOH assessed as decrease in ceramide hydrolysis using ceramide as counter-substrate measured after 24 hrs in presence of acid ceramidase by fluorescence quenching spectroscopy.
Assay [7] concerns the target T1, Prosaposin (Homo sapiens). Kind of assay: Binding affinity to human saposin D (1 to 81 residues) expressed in Escherichia coli complexed with CerPO4 assessed as decrease in ceramide hydrolysis using ceramide as counter-substrate preincubated the protein-ceramide complex for 30 mins measured after 24 hrs in presence of acid ceramidase by HPLC analysis.
For assay [8], the target named is T1, Prosaposin (Homo sapiens). The assay can be described thus: Binding affinity to human saposin D (1 to 81 residues) expressed in Escherichia coli assessed as inhibition of ceramide hydrolysis preincubated for 30 mins followed by ceramide addition measured after 72 hrs by HPLC analysis.
Assay [9] deals with T3, Acid ceramidase (Homo sapiens) (UniProt Q13510).
T3 sequence (whole entry): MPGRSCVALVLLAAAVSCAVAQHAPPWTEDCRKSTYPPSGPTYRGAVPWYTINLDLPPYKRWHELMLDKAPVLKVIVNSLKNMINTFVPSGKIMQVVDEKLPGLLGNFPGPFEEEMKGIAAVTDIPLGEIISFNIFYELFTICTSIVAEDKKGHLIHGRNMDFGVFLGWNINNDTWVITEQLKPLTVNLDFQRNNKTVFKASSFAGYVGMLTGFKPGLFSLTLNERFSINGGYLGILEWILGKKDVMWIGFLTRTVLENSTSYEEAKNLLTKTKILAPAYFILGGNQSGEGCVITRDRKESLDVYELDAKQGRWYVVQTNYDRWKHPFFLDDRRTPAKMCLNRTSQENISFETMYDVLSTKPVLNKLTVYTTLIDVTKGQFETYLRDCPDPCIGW
Kind of assay: Inhibition of acid ceramidase (unknown origin) assessed as inhibition of ceramide hydrolysis preincubated for 30 mins followed by ceramide addition measured after 72 hrs by HPLC analysis.

As to `CC1=C(/C=C/C(C)=C/C=C/C(C)=C/C(=O)Nc2ccc(O)cc2)C(C)(C)CCC1` [FENRETINIDE], the result in assay [1] was inactive. The Ka in assay [2] and in assay [4] was 1.45 10^5/M in each case. The Kd in [3] and in [5] was 6.9 µM in each case. In addition, the result in assay [6] and in assay [7] was Active. For the same molecule, the inhibition result in assay [8] and in [9] was “Active” throughout.

Usually Kd stands for a measure of binding affinity in units of concentration. A lower Kd goes with tighter binding.
